Data on 22 compounds can be found in ChEMBL document CHEMBL4406892 (Bioorg Med Chem Lett, 2019).

A word on the Ki: it is the dissociation constant of the complex between target and ligand, obtained from inhibition or displacement. Higher therefore signals lower affinity. A word on the IC50: it is the concentration needed to halve the response being measured.

The target in data set [1] is Urokinase-type plasminogen activator (Homo sapiens, UniProt P00749).
Description: Inhibition of human kidney uPA using fluorogenic Z-Pyr-Gly-Arg-MCA as substrate measured after 15 mins by fluorometric analysis
The target in data set [2] is Plasminogen (Homo sapiens, UniProt P00747). As to the kind of experiment: Inhibition of plasmin (unknown origin) using chromogenic H-D-Ile-[…]-L-arginine-p-nitroaniline as substrate.
Chain of Plasminogen (P00747 97-580 limits assumed): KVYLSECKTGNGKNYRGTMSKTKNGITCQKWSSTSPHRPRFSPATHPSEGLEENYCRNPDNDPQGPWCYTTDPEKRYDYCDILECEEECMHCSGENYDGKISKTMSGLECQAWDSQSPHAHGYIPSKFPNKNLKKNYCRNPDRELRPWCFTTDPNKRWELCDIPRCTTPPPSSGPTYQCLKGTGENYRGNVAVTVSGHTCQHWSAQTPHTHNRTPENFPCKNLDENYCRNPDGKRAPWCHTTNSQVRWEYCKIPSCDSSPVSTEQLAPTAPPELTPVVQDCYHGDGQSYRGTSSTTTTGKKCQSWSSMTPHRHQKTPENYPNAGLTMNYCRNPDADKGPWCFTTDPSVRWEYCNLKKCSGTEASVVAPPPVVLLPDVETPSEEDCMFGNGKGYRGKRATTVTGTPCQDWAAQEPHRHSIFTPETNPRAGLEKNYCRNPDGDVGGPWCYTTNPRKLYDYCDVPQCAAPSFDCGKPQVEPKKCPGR
Chain of Plasminogen (P00747 581-810 limits assumed): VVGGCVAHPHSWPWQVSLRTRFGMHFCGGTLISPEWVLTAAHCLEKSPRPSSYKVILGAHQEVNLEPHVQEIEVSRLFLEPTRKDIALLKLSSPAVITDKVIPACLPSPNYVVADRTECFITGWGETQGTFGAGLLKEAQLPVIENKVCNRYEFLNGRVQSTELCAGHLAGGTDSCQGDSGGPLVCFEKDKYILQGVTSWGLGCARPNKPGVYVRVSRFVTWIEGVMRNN
The target of data set [3] is Prothrombin (Homo sapiens, UniProt P00734). As to the kind of experiment: Inhibition of thrombin (unknown origin) using chromogenic H-D-Ile-[…]-L-arginine-p-nitroaniline as substrate.
Data set [4] concerns the target Trypsin (Homo sapiens, UniProt P07477+P07478+P35030). Kind of data set: Inhibition of trypsin (unknown origin) using chromogenic H-D-Ile-[…]-L-arginine-p-nitroaniline as substrate. It is filed as protein assay.
The target in data set [5] is Coagulation factor X (Homo sapiens, UniProt P00742). Kind of data set: Inhibition of factor Xa (unknown origin).
Chain of Coagulation factor X (P00742 41-179 limits assumed): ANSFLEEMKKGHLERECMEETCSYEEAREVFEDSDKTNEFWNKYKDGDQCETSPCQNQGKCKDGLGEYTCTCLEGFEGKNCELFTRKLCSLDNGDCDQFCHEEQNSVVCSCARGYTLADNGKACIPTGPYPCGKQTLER
Chain of Coagulation factor X (P00742 235-488 limits assumed): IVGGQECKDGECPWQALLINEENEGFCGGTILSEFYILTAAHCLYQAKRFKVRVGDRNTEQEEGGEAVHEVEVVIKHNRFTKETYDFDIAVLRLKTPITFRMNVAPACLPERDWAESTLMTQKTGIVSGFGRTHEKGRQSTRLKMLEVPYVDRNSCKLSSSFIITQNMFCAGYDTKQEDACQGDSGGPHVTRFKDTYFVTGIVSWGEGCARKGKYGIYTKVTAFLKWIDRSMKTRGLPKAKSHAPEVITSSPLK
The target of data set [6] is Coagulation factor XI (Homo sapiens, UniProt P03951). Kind of data set: Inhibition of factor 11a (unknown origin) using chromogenic L-pyroGlu-L-Pro-L-Arg-p-nitroaniline as substrate.
Chain of Coagulation factor XI (P03951 19-387 limits assumed): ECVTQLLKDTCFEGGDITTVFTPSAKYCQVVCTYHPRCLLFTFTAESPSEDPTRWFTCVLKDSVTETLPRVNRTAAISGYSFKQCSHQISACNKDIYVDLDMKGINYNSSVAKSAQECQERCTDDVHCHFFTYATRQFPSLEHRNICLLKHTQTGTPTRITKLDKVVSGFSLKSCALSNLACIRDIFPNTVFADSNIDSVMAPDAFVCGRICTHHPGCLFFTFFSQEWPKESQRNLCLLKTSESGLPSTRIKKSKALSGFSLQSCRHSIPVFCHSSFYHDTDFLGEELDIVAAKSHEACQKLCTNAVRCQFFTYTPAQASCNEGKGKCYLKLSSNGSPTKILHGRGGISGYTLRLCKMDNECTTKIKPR
Chain of Coagulation factor XI (P03951 388-625 limits assumed): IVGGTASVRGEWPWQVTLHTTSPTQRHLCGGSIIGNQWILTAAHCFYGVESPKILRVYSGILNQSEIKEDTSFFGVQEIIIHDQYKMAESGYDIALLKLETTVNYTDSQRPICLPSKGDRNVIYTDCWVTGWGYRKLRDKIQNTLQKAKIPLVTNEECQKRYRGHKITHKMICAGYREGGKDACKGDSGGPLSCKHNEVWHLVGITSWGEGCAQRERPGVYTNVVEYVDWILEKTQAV
The target in data set [7] is Vitamin K-dependent protein C (Homo sapiens, UniProt P04070). Kind of data set: Inhibition of activated protein C (unknown origin) using chromogenic L-pyroGlu-L-Pro-L-Arg-p-nitroaniline as substrate.
Chain of Vitamin K-dependent protein C (P04070 43-197 limits assumed): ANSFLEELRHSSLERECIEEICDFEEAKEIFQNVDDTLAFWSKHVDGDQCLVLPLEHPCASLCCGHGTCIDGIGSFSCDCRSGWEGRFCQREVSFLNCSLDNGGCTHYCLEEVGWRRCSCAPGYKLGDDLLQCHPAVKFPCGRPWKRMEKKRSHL
Chain of Vitamin K-dependent protein C (P04070 212-461 limits assumed): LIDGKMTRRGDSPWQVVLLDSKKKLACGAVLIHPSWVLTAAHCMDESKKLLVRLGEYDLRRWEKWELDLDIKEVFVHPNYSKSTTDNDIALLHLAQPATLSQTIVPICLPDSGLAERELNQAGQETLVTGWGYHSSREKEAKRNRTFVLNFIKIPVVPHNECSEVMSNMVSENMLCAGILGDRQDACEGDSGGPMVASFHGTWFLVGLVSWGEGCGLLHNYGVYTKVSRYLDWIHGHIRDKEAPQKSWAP
Data set [8] concerns HT-1080. Kind of data set: Antimetastatic activity against luciferase-tagged human HT1080 cells xenografted in NSG mouse assessed as reduction in lung burden at 7.5 mg/kg/day, ip for 21 days by luciferase assay. It counts as functional, organism-based. (In general: Xenograft models place foreign cells or tissue in a host animal.)
For data set [9], the target named is Plasma kallikrein (Homo sapiens, UniProt P03952).
Chain of Plasma kallikrein (P03952 20-390 limits assumed): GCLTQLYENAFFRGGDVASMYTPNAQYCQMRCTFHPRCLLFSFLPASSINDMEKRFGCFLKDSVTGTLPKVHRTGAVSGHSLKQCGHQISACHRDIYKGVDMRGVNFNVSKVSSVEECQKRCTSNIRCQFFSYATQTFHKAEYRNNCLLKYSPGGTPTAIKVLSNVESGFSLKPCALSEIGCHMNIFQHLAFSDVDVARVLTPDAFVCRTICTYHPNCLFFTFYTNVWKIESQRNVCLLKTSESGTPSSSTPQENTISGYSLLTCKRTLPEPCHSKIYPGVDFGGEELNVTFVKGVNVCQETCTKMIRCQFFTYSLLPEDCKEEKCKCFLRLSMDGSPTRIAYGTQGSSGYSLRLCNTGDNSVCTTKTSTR
Chain of Plasma kallikrein (P03952 391-638 limits assumed): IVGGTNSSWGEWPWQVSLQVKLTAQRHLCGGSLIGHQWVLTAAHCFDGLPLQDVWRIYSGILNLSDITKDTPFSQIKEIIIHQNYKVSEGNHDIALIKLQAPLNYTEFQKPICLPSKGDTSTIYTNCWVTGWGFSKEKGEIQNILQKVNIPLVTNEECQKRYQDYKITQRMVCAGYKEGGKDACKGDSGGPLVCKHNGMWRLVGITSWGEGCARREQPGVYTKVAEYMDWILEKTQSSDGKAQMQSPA
Description: Inhibition of human plasma kallikrein using chromogenic L-pyroGlu-L-Pro-L-Arg-p-nitroaniline as substrate
Data set [10] has as its target Tissue-type plasminogen activator (Homo sapiens, UniProt P00750).
Description: Inhibition of tissue-type plasminogen activator (unknown origin) using chromogenic H-D-Ile-L-propyl-L-arginine-p-nitroaniline as substrate
Data set [11] deals with Rattus norvegicus. Kind of data set: Diuretic activity in Sprague-Dawley rat model of acetazolamide-induced diuresis assessed as increase in sodium excretion at 1.5 mg/kg, ip pretreated with acetazolamide followed by compound treatment measured after 6 hrs. It is filed as ADME, organism-based. The settings on record: in vivo.
The subject of data set [12] is Rattus norvegicus. Kind of data set: Antikaliuretic activity in Sprague-Dawley rat model of acetazolamide-induced diuresis assessed as decrease in potassium secretion at 1.5 mg/kg, ip pretreated with acetazolamide followed by compound treatment measured after 6 hrs. The settings on record: in vivo. It counts as ADME, organism-based.
Data set [13] concerns Rattus norvegicus. As to the kind of experiment: Diuretic activity in Sprague-Dawley rat model of acetazolamide-induced diuresis assessed as increase in urine volume at 1.5 mg/kg, ip pretreated with acetazolamide followed by compound treatment measured after 6 hrs. It is filed as ADME, organism-based. The settings on record: in vivo.

The structures appear in SMILES notation. Active and inactive are the calls of the source. The rule behind the calls is not given here. A value given as a limit tells only on which side of the number the result lay.

Chain of Tissue-type plasminogen activator (P00750 whole entry): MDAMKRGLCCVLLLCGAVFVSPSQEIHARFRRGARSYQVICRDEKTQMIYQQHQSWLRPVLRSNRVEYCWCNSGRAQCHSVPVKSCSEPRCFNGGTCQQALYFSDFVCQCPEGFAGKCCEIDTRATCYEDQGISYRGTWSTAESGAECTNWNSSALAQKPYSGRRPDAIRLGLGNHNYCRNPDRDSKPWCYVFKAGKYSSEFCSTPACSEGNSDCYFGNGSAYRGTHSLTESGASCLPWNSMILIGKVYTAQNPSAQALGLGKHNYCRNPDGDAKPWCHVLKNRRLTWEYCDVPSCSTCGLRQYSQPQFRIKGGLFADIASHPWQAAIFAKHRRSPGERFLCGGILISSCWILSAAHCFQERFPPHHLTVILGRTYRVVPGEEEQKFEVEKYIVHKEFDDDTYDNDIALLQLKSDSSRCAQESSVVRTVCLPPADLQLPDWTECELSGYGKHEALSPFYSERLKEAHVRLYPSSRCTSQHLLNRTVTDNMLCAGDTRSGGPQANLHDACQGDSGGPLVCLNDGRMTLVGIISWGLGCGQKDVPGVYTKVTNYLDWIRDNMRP

As to `CSc1ccc(-c2nc(C(=O)NC(=N)N)c(N)nc2N)cc1`, affinity in [1] was put at a Ki of 2.41 µM.

`N=C(N)NC(=O)c1nc(Cl)c(N)nc1N` [AMILORIDE]: the IC50 in data set [2] is more than 20 µM; in data set [3], more than 20 µM; in data set [4], more than 50 µM; in [5] it was more than 50 µM; in data set [6] it was more than 50 µM; in data set [7] it was more than 50 µM. For the same compound, the results for the IC50 in data set [9] and in data set [10] were more than 50 µM and more than 20 µM, respectively. Besides, the inhibition entry in [8] was “inactive”.

`N=C(N)NC(=O)c1nc(-c2ccc3c(c2)CCO3)c(N)nc1N` displayed an inhibition constant (Ki) in [1] of 1.48 µM. In other words, the single-digit micromolar range.

Compound `COc1ncc(-c2nc(C(=O)NC(=N)N)c(N)nc2N)c(OC)n1` registered a Ki in data set [1] of 1.63 µM.

As for `N#Cc1ccc2oc(-c3nc(C(=O)NC(=N)N)c(N)nc3N)cc2c1`, the inhibition constant Ki in [1] worked out at 0.904 µM. This Ki lies about 1.8-fold lower than the previous one.

The compound `N=C(N)NC(=O)c1nc(-c2ccc3occc3c2)c(N)nc1N` registered an inhibition constant Ki in data set [1] of 0.35 µM. Compared with the last compound, the Ki is about 2.6-fold lower.

In the case of `Cc1ccc2oc(-c3nc(C(=O)NC(=N)N)c(N)nc3N)cc2c1`, the Ki in data set [1] came to 0.642 µM.

As to `N=C(N)NC(=O)c1nc(-c2cccs2)c(N)nc1N`, the inhibitory constant (Ki) in data set [1] turned out to be 1.26 µM.

Regarding `COc1ncc(-c2nc(C(=O)NC(=N)N)c(N)nc2N)cn1`, the Activity entry in data set [11] and in [12] was “Non-Toxic” throughout. This compound also gave a Ki in [1] of 0.204 µM.

In turn, `N=C(N)NC(=O)c1nc(-c2ccco2)c(N)nc1N` displayed a Ki in [1] of 0.776 µM. That is a sub-micromolar value.

For `N=C(N)NC(=O)c1nc(-c2cc3cc(Br)ccc3o2)c(N)nc1N`, in data set [1], the inhibitory constant (Ki) was determined as 3.65 µM. Against the preceding compound, the Ki is about 4.7-fold higher.

In turn, `N=C(N)NC(=O)c1nc(-c2ccccc2)c(N)nc1N` came in with an inhibition constant (Ki) in [1] of 2.5 µM.

In data set [1], `Cn1cc(-c2nc(C(=O)NC(=N)N)c(N)nc2N)cn1` gave a Ki of 0.482 µM.

Take `N=C(N)NC(=O)c1nc(-c2cc3cc(F)ccc3o2)c(N)nc1N`: the Ki in data set [1] stood at 0.587 µM.

In data set [1], `N=C(N)NC(=O)c1nc(-c2ccc(C(F)(F)F)cc2)c(N)nc1N` registered an inhibition constant (Ki) of 3.14 µM. Against the preceding compound, the Ki is about 5.3-fold higher.

For `N=C(N)NC(=O)c1nc(-c2cc3ccccc3o2)c(N)nc1N`, the 50% inhibitory concentration (IC50) in data set [4] is more than 50 µM. The Activity result in data set [13], in [11] and in [12] was “Non-Toxic” in each case.

Consider `N=C(N)NC(=O)c1nc(-c2cc3ccccc3s2)c(N)nc1N`, for which the Ki in data set [1] turned out to be 1.41 µM.

`COc1ccc2oc(-c3nc(C(=O)NC(=N)N)c(N)nc3N)cc2c1` returned a Ki in [1] of 0.287 µM.

On to `N=C(N)NC(=O)c1nc(-c2cc3cc(Cl)ccc3o2)c(N)nc1N`, for which the Ki in data set [1] was 0.578 µM.

In the case of `N=C(N)NC(=O)c1nc(-c2ccoc2)c(N)nc1N`, the affinity in data set [1] corresponds to a Ki of 0.499 µM.

With `COc1ccc(-c2nc(C(=O)NC(=N)N)c(N)nc2N)c(OC)n1`, the inhibition constant Ki in data set [1] was 1.21 µM. This Ki is about 2.4-fold higher than that of the compound before.

In data set [1], `COc1ccc2cc(-c3nc(C(=O)NC(=N)N)c(N)nc3N)oc2c1` yielded a Ki of 0.439 µM.
